ChEMBL document CHEMBL1201862, “PubChem BioAssay data set” (2004)
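Step 1: Grow cells in 96-well plates. Step 2: Expose to compound for 48 hours at 5 concentrations. Step 3: Interpolate endpoints linearly; if unreached, use highest concentration. The concentration for 50% growth inhibition is given as GI50.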 Active and inactive are the calls of the source. Cut-off read from the data, not from the text of the source: active = GI50 up to about 1.1 µM and inactive = higher.

Assays:
Assay in all cases: inhibition of tumour cell growth, NCI panel, 48 h
[1] = tested on: SF-295
[2] = tested on: ACHN
[3] = tested on: NCI-H226
[4] = tested on: T47D
[5] = tested on: SF-539
[6] = tested on: DU-145
[7] = tested on: SN12C
[8] = tested on: SF-268
[9] = tested on: OVCAR-5
[10] = tested on: SK-OV-3
[11] = tested on: NCI-H522
[12] = tested on: K562
[13] = tested on: MDA-N
[14] = tested on: IGROV-1
[15] = tested on: UO-31
[16] = tested on: MDA-MB-435
[17] = tested on: TK-10
[18] = tested on: MCF7
[19] = tested on: NCI-H460
[20] = tested on: HT-29
[21] = tested on: U-251
[22] = tested on: HL-60
[23] = tested on: SW-620
[24] = tested on: CCRF-CEM
[25] = tested on: OVCAR-3
[26] = tested on: LOX IMVI
[27] = tested on: HOP-62
[28] = tested on: EKVX
[29] = tested on: UACC-62
[30] = tested on: RXF 393
[31] = tested on: BT-549
[32] = tested on: OVCAR-8
[33] = tested on: SNB-75
[34] = tested on: PC-3
[35] = tested on: RPMI-8226
[36] = tested on: Hs-578T
[37] = tested on: MDA-MB-231
[38] = tested on: M14
[39] = tested on: A549
[40] = tested on: A498
[41] = tested on: SNB-19
[42] = tested on: NCI/ADR-RES
[43] = tested on: COLO 205
[44] = tested on: HCT-15
[45] = tested on: CAKI-1
[46] = tested on: HCT-116
[47] = tested on: 786-0
[48] = tested on: SK-MEL-28
[49] = tested on: SK-MEL-2
[50] = tested on: NCI-H23
[51] = tested on: MOLT-4
[52] = tested on: Malme-3M
[53] = tested on: KM12
[54] = tested on: OVCAR-4
[55] = tested on: SK-MEL-5
[56] = tested on: HCC 2998
[57] = tested on: UACC-257

Measured: GI50

CC/C(=N\NC(=O)c1cccnc1)c1ccc2c(c1)OCCO2
> 100 µM: [44]
inactive: [1] > 100 µM | [2] > 100 µM | [3] > 100 µM | [4] > 100 µM | [5] > 100 µM | [6] > 100 µM | [7] > 100 µM | [8] > 100 µM | [9] > 100 µM | [10] > 100 µM | [11] 29.1 µM | [12] 76 µM | [13] 30.9 µM | [14] > 100 µM | [15] > 100 µM | [16] 34.5 µM | [17] > 100 µM | [18] 66.5 µM | [19] > 100 µM | [20] > 100 µM | [21] > 100 µM | [22] > 100 µM | [23] > 100 µM | [24] > 100 µM | [25] > 100 µM | [26] > 100 µM | [27] > 100 µM | [28] 64.1 µM | [29] 87.9 µM | [30] > 100 µM | [31] > 100 µM | [32] > 100 µM | [33] > 100 µM | [34] > 100 µM | [35] > 100 µM | [36] 12.4 µM | [37] 74.8 µM | [38] > 100 µM | [39] > 100 µM | [40] > 100 µM | [41] > 100 µM | [42] > 100 µM | [43] > 100 µM | [45] > 100 µM | [46] > 100 µM | [47] > 100 µM | [48] > 100 µM | [49] > 100 µM | [50] > 100 µM | [51] > 100 µM | [52] 28.4 µM | [53] 96.6 µM | [54] > 100 µM | [55] 33.7 µM

Cc1cc(S(=O)(=O)Nc2nc(N)n[nH]2)c(S)cc1Cl
inactive: [1] > 10 µM | [2] > 10 µM | [3] > 10 µM | [4] > 10 µM | [5] > 10 µM | [6] > 10 µM | [7] > 10 µM | [8] > 10 µM | [9] > 10 µM | [10] > 10 µM | [11] > 10 µM | [12] > 10 µM | [13] > 10 µM | [14] > 10 µM | [16] > 10 µM | [17] > 10 µM | [18] > 10 µM | [19] > 10 µM | [20] > 10 µM | [21] > 10 µM | [22] > 10 µM | [23] > 10 µM | [24] > 10 µM | [56] > 10 µM | [25] > 10 µM | [26] > 10 µM | [27] > 10 µM | [28] > 10 µM | [29] > 10 µM | [30] > 10 µM | [31] > 10 µM | [32] > 10 µM | [33] > 10 µM | [34] > 10 µM | [35] > 10 µM | [36] > 10 µM | [37] > 10 µM | [38] > 10 µM | [39] > 10 µM | [40] > 10 µM | [41] > 10 µM | [42] > 10 µM | [43] > 10 µM | [45] > 10 µM | [46] > 10 µM | [47] > 10 µM | [48] > 10 µM | [49] > 10 µM | [50] > 10 µM | [51] > 10 µM | [52] > 10 µM | [57] > 10 µM | [53] > 10 µM | [54] > 10 µM | [55] > 10 µM
> 10 µM: [44]
